Measurements taken from ChEMBL document CHEMBL5352451, “Novel rhodanine based inhibitors of aldose reductase of non-acidic nature with p-hydroxybenzylidene functional group” (Eur J Med Chem, 2023).

Columns and labels:
Rattus norvegicus = species on record: Rattus norvegicus; experiment: Selectivity index, ratio of IC50 for rat kidney ALR1 to IC50 for rat eye lens ALR2
[1] = Inhibition of rat eye lens ALR2 using DL-glyceraldehyde by measuring NADPH consumption by spectrophotometric analysis; format: tissue-based
[2] = biological target: Aldo-keto reductase family 1 member A1 (Rattus norvegicus, UniProt P51635); experiment: Inhibition of rat kidney ALR1 using D-glucuronate by measuring NADPH consumption by spectrophotometric analysis; format: tissue-based
[3] = biological target: Aldo-keto reductase family 1 member B1 (Homo sapiens, UniProt P15121); experiment: Inhibition of ALR2 (unknown origin)

Chain of Aldo-keto reductase family 1 member A1 (P51635 whole entry, looked up): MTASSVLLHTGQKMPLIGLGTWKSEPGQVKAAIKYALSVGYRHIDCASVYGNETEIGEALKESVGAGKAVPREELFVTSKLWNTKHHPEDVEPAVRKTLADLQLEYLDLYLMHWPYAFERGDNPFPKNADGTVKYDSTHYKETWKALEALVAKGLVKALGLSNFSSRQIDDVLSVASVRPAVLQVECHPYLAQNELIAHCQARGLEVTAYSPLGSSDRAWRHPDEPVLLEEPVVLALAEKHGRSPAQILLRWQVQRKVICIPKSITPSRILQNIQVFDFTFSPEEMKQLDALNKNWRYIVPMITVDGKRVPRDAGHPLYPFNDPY

Structure (SMILES) | Ratio IC50 (Rattus norvegicus) | IC50 [1] [µM] | pIC50 [1] | IC50 [2] [µM] | IC50 [3] [µM]
COc1ccc2nc(/N=C3\NC(=O)/C(=C/c4ccc(O)cc4)S3)sc2c1 | – | – | – | – | 1.3
O=C1/C(=C/c2ccc(O)cc2)SC(=S)N1/N=C/c1ccccc1 | 24 | 0.892 | 6.05 | 21.1 | –
COC(=O)CN1C(=O)S/C(=C\c2ccc(O)cc2)C1=O | – | – | – | – | 6.18
CC(/C=C1\SC(=S)N(CC(=O)O)C1=O)=C\c1ccccc1 [EPALRESTAT] | – | 0.25 | 6.6 | – | –
O=C1/C(=C/c2ccc(O)cc2)SC(=S)N1/N=C/c1ccccc1Cl | 12 | 0.149 | 6.83 | 1.76 | –
O=C1/C(=C/c2ccc(O)cc2)SC(=S)N1/N=C/c1ccc(F)cc1 | 8 | 0.027 | 7.57 | 0.228 | –
O=C(CN1C(=O)S/C(=C\c2ccc(O)cc2)C1=O)Nc1ccccc1O | – | – | – | – | 0.95

Continued, values first:

Ratio IC50 (Rattus norvegicus) | IC50 [1] [µM] | pIC50 [1] | IC50 [2] [µM] | IC50 [3] [µM] | Structure (SMILES)
> 11 | 2.15 | 5.67 | > 25 | – | COc1ccc(/C=N/N2C(=O)/C(=C/c3ccc(O)cc3)SC2=S)cc1
12 | 0.053 | 7.28 | 0.635 | – | Cc1ccccc1/C=N/N1C(=O)/C(=C/c2ccc(O)cc2)SC1=S
– | – | – | – | 1.79 | O=C(CN1C(=O)S/C(=C\c2ccc(O)cc2)C1=O)NO
5 | 0.022 | 7.66 | 0.116 | – | O=C1/C(=C/c2ccc(O)cc2)SC(=S)N1/N=C/c1ccc(O)cc1
– | – | – | – | 3 | O=C1S/C(=C\c2ccc(O)cc2)C(=O)N1CC(=O)C(F)(F)F
